Measured values reported in patent US6288091A, “Antiherpes virus compounds and methods for their preparation and use” (Boehringer Ingelheim Ltd., priority 1999, dated 2001).

Legend:
HCMV (strain AD169) [1] = experiment: Inhibition of HCMV replication, ELISA assay (Hs-68 cells); type: cell-based, Human Cytomegalovirus (HCMV); settings: read-out: ELISA CMV EC50
Procedure, shortened: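 Hs-68 fibroblasts at 80–90% confluency infected with HCMV AD169 at MOI 0.01 PFU/cell for 2 h, washed, then cultured 8 days at 37 °C with test compound in DMEM/5% FBS. Late protein p28 detected by ELISA (mAb UL99, HRP/OPD, 450 nm); EC50 from % inhibition of replication.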

HCMV (strain AD169) [2] = experiment: Inhibition of HCMV replication, plaque reduction assay (PRA, Hs-68 cells); type: cell-based, Human Cytomegalovirus (HCMV); settings: read-out: PRA CMV EC50
Procedure, shortened: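 Hs-68 monolayers (80–90% confluent) were infected with ~50 PFU HCMV AD169 for 2 h at 37°, then given compound in DMEM/5% inactivated FBS, refreshed after 4 days and kept 4 more days. Plaques were counted after formaldehyde fixation and crystal violet staining. EC50 derives from percent plaque reduction versus untreated wells.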

[3] = Human betaherpesvirus 5, AD169, Hs68, Group 1 Table 1 entries
[4] = Human betaherpesvirus 5, AD169, Hs68, Group 1 Table 5 entries
[5] = Human betaherpesvirus 5, AD169, Hs68, Group 1 Table 2 entries
[6] = Human betaherpesvirus 5, AD169, Hs68, Group 1 Table 3 entries

| Structure (SMILES) | EC50 (HCMV (strain AD169) [1]; [3]) [µM] | EC50 (HCMV (strain AD169) [2]; [3]) [µM] | other results |
| --- | --- | --- | --- |
| Nc1nc(-c2ccc(NC(=O)CN(Cc3ccccc3)C(=O)CC3CCCCC3)cc2)cs1 [Example 38] | 4 | 4.6 | – |
| Nc1nc(-c2ccc(NC(=O)CN(Cc3ccccc3)C(=O)c3ccc(F)cc3)cc2)cs1 [Example 24] | 14 | 15 | – |
| CN[C@@H](Cc1ccccc1)C(=O)Nc1ccc(-c2csc(N)n2)cc1 [Example 8] | – | – | EC50 (HCMV (strain AD169) [1]; [4]): 1.1 µM; EC50 (HCMV (strain AD169) [2]; [4]): 33 µM |
| Nc1nc(-c2ccc(NC(=O)CN(Cc3cccs3)C(=O)C3CCCCC3)cc2)cs1 [Example 51] | 6 | 11 | – |
| CC(C)(C)OC(=O)N(CC(=O)Nc1ccc(-c2csc(N)n2)cc1)Cc1ccccc1 [Example 85] | 0.6 | 12 | – |
| Nc1nc(-c2ccc(NC(=O)CN(Cc3ccccc3)S(=O)(=O)c3ccccc3)cc2)cs1 [Example 97] | > 5 | 15 | – |
| Nc1nc(-c2ccc(NC(=O)CN(Cc3ccccc3)C(=O)c3ccccc3)cc2)cs1 [Example 23] | 12 | 36 | – |
| Nc1nc(-c2ccc(NC(=O)CNCCCc3ccccc3)cc2)cs1 [Example 3] | 1.8 | > 14 | – |
| Nc1nc(-c2ccc(NC(=O)CN(Cc3ccccc3)C(=O)c3ccccn3)cc2)cs1 [Example 27] | 7 | > 36 | – |
| C[C@@H](c1ccccc1)N(CC(=O)Nc1ccc(-c2csc(N)n2)cc1)C(=O)C1CCCCC1 [Example 53] | 3.2 | 12 | – |
| Nc1nc(-c2ccc(NC(=O)CN(Cc3ccccn3)C(=O)C3CCCCC3)cc2)cs1 [Example 47] | 19 | > 103 | – |
| CC(C)(C)C(=O)N(CC(=O)Nc1ccc(-c2csc(N)n2)cc1)Cc1ccccc1 [Example 41] | 14 | 34 | – |
| Nc1nc(-c2ccc(NC(=O)CCN(CC3CCCCC3)C(=O)c3cccnc3)cc2)cs1 [Example 24] | – | – | EC50 (HCMV (strain AD169) [1]; [5]): 0.45 µM; EC50 (HCMV (strain AD169) [2]; [5]): 31 µM |
| Nc1nc(-c2ccc(NC(=O)CN(Cc3ccccc3)C(=O)C3CCCC3)cc2)cs1 [Example 36] | 2.8 | 16 | – |
| CN(C(=O)CN(Cc1ccccc1)C(=O)C1CCCCC1)c1ccc(-c2csc(N)n2)cc1 [Example 1] | – | – | EC50 (HCMV (strain AD169) [1]; [6]): > 46 µM; EC50 (HCMV (strain AD169) [2]; [6]): 24 µM |
| CNc1nc(-c2ccc(NC(=O)CN(Cc3ccccc3)C(=O)c3ccccc3)cc2)cs1 [Example 6] | – | – | EC50 (HCMV (strain AD169) [1]; [6]): 51 µM; EC50 (HCMV (strain AD169) [2]; [6]): 16 µM |
| C[C@@H](NCC(=O)Nc1ccc(-c2csc(N)n2)cc1)c1ccccc1 [Example 11] | 19 | 19 | – |
| Nc1nc(-c2ccc(NC(=O)CCN(Cc3ccccc3)C(=O)c3ccccc3)cc2)cs1 [Example 3] | – | – | EC50 (HCMV (strain AD169) [1]; [5]): 1.2 µM; EC50 (HCMV (strain AD169) [2]; [5]): 9.2 µM |
| C[C@@H](c1ccccc1)N(CC(=O)Nc1ccc(-c2csc(N)n2)cc1)C(=O)OC(C)(C)C [Example 89] | 0.9 | 38 | – |
| CN(CC(=O)Nc1ccc(-c2csc(N)n2)cc1)Cc1ccccc1 [Example 15] | 6.2 | 6.5 | – |
